# Results published in US20030220310A1, “Epoxy-steroidal aldosterone antagonist and calcium channel blocker combination therapy for treatment of congestive heart failure” (priority 2003, published 2003).
# Values joined by “and” are separate entries in the source; they are usually repeats but may differ in a detail not shown here. Equal entries are not always repeated.
# Assays:
# [1] = tested on: rats made hypertensive by renal artery clip; assay: Assay C: Hypertensive Rat Model; assay type: in vivo; details: combination of calcium channel blocker and epoxymexrenone versus either component alone, after 12 to 24 weeks
# Method: Assay “C”: Hypertensive Rat Model Male rats are made hypertensive by placing a silver clip with an aperture of 240 microns on the left renal artery, leaving the contralateral kidney untouched. Sham controls undergo the same procedure but without attachment of the clip. One week prior to the surgery, animals to be made hypertensive are divided into separate groups and drug treatment is begun. Groups of animals are administered vehicle, calcium channel blocker alone, epoxymexrenone alone, and combinations of calcium channel blocker and epoxymexrenone at various doses: [table] After 12 to 24 weeks, systolic and diastolic blood pressure, left ventricular end diastolic pressure, left ventricular dP/dt, and heart rate are evaluated. The hearts are removed, weighed, measured and fixed in formalin. Collagen content of heart sections are evaluated using computerized image analysis of picrosirius stained sections.
# [2] = tested on: patients with heart failure after an acute myocardial infarction; assay: Example 20 clinical study: eplerenone plus CCB in heart failure following acute myocardial infarction; assay type: in vivo, human
# Text: Clinical Study: Safety and Efficacy of Eplerenone When Co-Administered with a Calcium-Channel Blocker in Patients with Heart Failure Followin Acute Myocardial Infarctiong
# Secondary endpoints include cardiovascular morbidity and mortality. The study is a multicenter, randomized, double-blind, placebo-controlled, two-arm, parallel group trial that will continue until 1,012 deaths occur, which is estimated to require approximately 6,200 randomized patients followed for an average of approximately 2.5 years.
# Eligible patients may be identified for inclusion at any time following emergency room evaluation and presumptive diagnosis of AMI with HF. […]
# Patients will receive CCB therapy and may have received anticoagulants and antiplatelet agents, and may have received thrombolytics or emergency angioplasty. […] Serum potassium will be determined at 48 hours after initiation of treatment, at 1 and 5 weeks, at all other scheduled study visits, and within one week following any dose change.
# Study visits will occur at screening, baseline (randomization), 1 and 4 weeks, 3 months, and every 3 months thereafter until the study is terminated. […] Vital signs (seated heart rate and BP), New York Heart Association (NYHA) functional class, adverse events, and selected concurrent medications will be recorded at every visit. […]
# [3] = X-ray powder diffraction, Form H content of dried solids; assay type: physicochemical; details: methyl ethyl ketone solvate dried at 100° C.
# Method: For the Siemens D500 powder diffractometer, the raw data was measured for 2q values from 2 to 50, with steps of 0.020 and step periods of two seconds. For the Inel Multipurpose Diffractometer, samples were placed in an aluminum sample holder and raw data was collected for 30 minutes at all two theta values simultaneously.
# The weight percent of the diepoxide or 11,12-epoxide in each sample is given in Tables X-6A and X-6B, respectively. A micro-flea magnetic stirrer was added to each scintillation vial along with 1 mL of methyl ethyl ketone. The vials were loosely capped and the solid dissolved by heating to reflux on a hot plate with magnetic stirring. Once the solids were dissolved, the solutions were allowed to cool to room temperature on the hot plate. Magnetic stirring was maintained during the cooling period. After the solutions reached room temperature, the solids were collected by vacuum filtration and immediately analyzed by X-ray powder diffraction (XPRD). The solids were then placed in a 100° C. oven and dried for one hour at ambient pressure. The dried solids were analyzed by XPRD for Form H content by monitoring the area of the Form H diffraction peak at about 12.1 degrees two theta. All XPRD diffraction patterns were recorded using an Inel Multipurpose Diffractometer.
# The area for the Form H diffraction peak at about 12.1 degrees two theta and the estimated Form H content for each sample are given in Table X-6C below.
# [4] = Differential scanning calorimetry, melting/decomposition; assay type: physicochemical; details: cooling rate (0) 1.5° C./min.; endpoint (0) 25° C.; 100.8% eplerenone seeded with Form H; analyzed by DSC
# Text: Melting/decomposition ranges were defined from the extrapolated onset to the maximum of the melting/decomposition endotherm. […] One or more endothermal events at lower temperatures were associated with enthalpy changes that occurred as solvent was lost from the solvate crystal lattice. The highest temperature endotherm or endotherms were associated with the melting/decomposition of Form L or Form H eplerenone.
# [5] = X-ray powder diffraction, Form H content of dried solids; assay type: physicochemical; details: for Form H Peak Area 12° Two Theta Peak / Estimated Weight Percent of Form H: methyl ethyl ketone solvate dried at 100° C.
# [6] = 0% 11,12-epoxide in starting eplerenone mixture
# [7] = 1% 11,12-epoxide in starting eplerenone mixture
# [8] = 5% 11,12-epoxide in starting eplerenone mixture
# [9] = 5% diepoxide in starting eplerenone mixture
# [10] = 3% diepoxide in starting eplerenone mixture
# [11] = 10% 11,12-epoxide in starting eplerenone mixture
smiles,measurement,setting,value
"COC(=O)[C@@H]1CC2=CC(=O)CC[C@]2(C)C23O[C@@H]2C[C@@]2(C)[C@@H](CC[C@@]24CCC(=O)O4)[C@H]13 (stereo partly drawn) [eplerenone, Pregn-4-ene-7,21-dicarboxylic acid, 9,11-epoxy-17-hydroxy-3-oxo-,γ-lactone, methyl ester, (7α,11α,17β)-]",cardiac performance,[1],improvements in cardiac performance
same,primary end point of all cause mortality,[2]; eplerenone plus CCB relative to CCB alone,Improvement
same,"secondary end points (cardiovascular mortality, hospitalizations, quality of life etc.)",[2]; eplerenone plus CCB versus CCB alone,Beneficial effects
same,Estimated Weight Percent of Form H,[3]; [6],None Detected
same,Form H Peak Area 12° Two Theta Peak,[3]; [6],None Detected
same,Estimated Weight Percent of Form H,[3]; [7],None Detected
same,Estimated Weight Percent of Form H,[3]; [8],None Detected
same,Form H Peak Area 12° Two Theta Peak,[3]; [8],None Detected
same,Estimated Weight Percent of Form H,[3]; [9],30%
same,Weight Percent Form H (DSC),[4],100 Weight Percent
same,Form H Peak Area 12° Two Theta Peak,[5]; [7],None Detected
same,Estimated Weight Percent of Form H,[5]; [10],10%
same,Form H Peak Area 12° Two Theta Peak,[5]; [10],1168
same,Form H Peak Area 12° Two Theta Peak,[5]; [9],4175
same,Estimated Weight Percent of Form H,[5]; [11],10-15%
same,Form H Peak Area 12° Two Theta Peak,[5]; [11],1541
same,Weight Percent Form H,"[5]; Cooling Rate High, End Point High, Impurity Level High, High Fluid Bed drying",25%
same,Weight Percent Form H,"[5]; Cooling Rate High, End Point High, Impurity Level High, Low Fluid Bed drying",4.7%
same,Weight Percent Form H,"[5]; Cooling Rate High, End Point High, Impurity Level High, Vacuum Oven drying",29%
same,Weight Percent Form H,"[5]; Cooling Rate Low, End Point Low, Impurity Level Low, Low Fluid Bed drying",5.5%
same,Weight Percent Form H (XPRD),"[5]; cooling rate (0) 1.5° C./min., endpoint (0) 25° C., 100.8% eplerenone seeded with Form H, analyzed by XPRD",77 Weight Percent
same,Weight Percent Form H (XPRD),"[5]; cooling rate (0) 1.5° C./min., endpoint (0) 25° C., impurity level (0) = 100.8% purity eplerenone starting material as printed, three runs",5 Weight Percent and <3% Weight Percent
same,Weight Percent Form H (XPRD),"[5]; cooling rate (+) 3° C./min., endpoint (+) 45° C., impurity level (+) 89.3% purity eplerenone starting material",29 Weight Percent
same,Weight Percent Form H (XPRD),"[5]; cooling rate (+) 3° C./min., endpoint (−) 5° C., impurity level (+) 89.3% purity eplerenone starting material",9 Weight Percent
same,Weight Percent Form H (XPRD),"[5]; cooling rate (−) 0.1° C./min., endpoint (+) 45° C., impurity level (+) 89.3% purity eplerenone starting material",31 Weight Percent
